Starred links: 1 amine or outer side, 2 acyl side, 3 side chain; linkers in the order of their positions; H or OH if unused. Non-standard residues stand in square brackets, D forms with d. Residues, ends and D or L forms follow the SMILES beside them. Groups on a side chain read outwards from the residue. *: point of attachment. C20 diacid = O=C(O)CCCCCCCCCCCCCCCCCCC(=O)*; C18 diacid = O=C(O)CCCCCCCCCCCCCCCCC(=O)*; γGlu = O=C(O)[C@H](CCC(=O)[*:2])N[*:1]; AEEA = NCCOCCOCC(=O)O; Aib = CC(C)(N)C(=O)O
Molecular target: T1, human CRF2α receptor (Homo sapiens, UniProt Q13324)
T1 construct: expressed in transfected cells; host or cells: TeloHEAC
T1 sequence (Q13324 1-411): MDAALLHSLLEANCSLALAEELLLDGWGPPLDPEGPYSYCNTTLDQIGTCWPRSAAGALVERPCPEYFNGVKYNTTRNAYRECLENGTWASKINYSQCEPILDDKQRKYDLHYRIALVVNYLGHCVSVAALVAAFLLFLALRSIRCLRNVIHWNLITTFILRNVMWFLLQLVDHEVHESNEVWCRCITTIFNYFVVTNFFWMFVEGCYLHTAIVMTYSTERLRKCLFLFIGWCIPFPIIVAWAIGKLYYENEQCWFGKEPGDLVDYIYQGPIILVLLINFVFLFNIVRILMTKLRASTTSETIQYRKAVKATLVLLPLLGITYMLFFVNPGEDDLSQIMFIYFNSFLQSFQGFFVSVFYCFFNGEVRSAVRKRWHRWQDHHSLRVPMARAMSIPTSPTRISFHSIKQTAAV
Experiment: cAMP agonism at human CRF2 α receptor in TeloHEAC cells (Example 7)
Assay type: cell-based
Details: cAMP HTRF, TeloHEAC cells stably expressing human CRF2 α, 0% HSA; read-out: EC50 [nM], 0% HSA
In short: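 Steps: thaw and wash cells; suspend in 1×HBSS, 20 mM HEPES, 0 or 0.1% HSA, 2 mM IBMX; add compound, 30 min RT; lyse with HTRF reagents, 1 h; read 665/620 nm. EC50 calculated, E% versus 1000 nM UCN2.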

SMILES	EC50
CC[C@H](C)[C@H](NC(=O)[C@H](CCC(N)=O)NC(=O)[C@H](CCCCNC(=O)COCCOCCNC(=O)COCCOCCNC(=O)CC[C@H](NC(=O)CCCCCCCCCCCCCCCCC(=O)O)C(=O)O)NC(=O)[C@H](CC(C)C)NC(=O)CNC(=O)[C@@H](NC(=O)[C@@H]1CCCN1C(=O)[C@@H](NC(=O)[C@H](CC(=O)O)NC(=O)[C@H](CC(C)C)NC(=O)[C@H](CO)NC(=O)[C@H](CC(C)C)NC(=O)[C@@H](NC(=O)[C@@H](N)Cc1ccccc1)[C@@H](C)O)C(C)C)[C@@H](C)CC)C(=O)N[C@@H](CC(C)C)C(=O)N[C@@H](CC(C)C)C(=O)N[C@@H](CCCCN)C(=O)N[C@@H](CCC(N)=O)C(=O)N[C@@H](CCC(N)=O)C(=O)N[C@@H](CCCCN)C(=O)N[C@@H](CCC(N)=O)C(=O)N[C@@H](CCCCN)C(=O)N[C@@H](CCCCN)C(=O)N[C@@H](CCC(=O)O)C(=O)N[C@@H](CCCNC(=N)N)C(=O)N[C@@H](CCC(N)=O)C(=O)N[C@@H](CCCCN)C(=O)N[C@@H](C)C(=O)N[C@@H](CCC(=O)O)C(=O)N[C@H](C(=O)N[C@@H](CC(N)=O)C(=O)N[C@H](C(=O)N[C@@H](CCC(N)=O)C(=O)N[C@@H](CC(C)C)C(=O)N[C@@H](CC(C)C)C(=O)N[C@@H](CCC(=O)O)C(=O)N[C@@H](CCCNC(=N)N)C(=O)N[C@H](C(N)=O)C(C)C)C(C)C)[C@@H](C)O [compound 57] (H-FTLSLDVPIGLK([AEEA-AEEA-γGlu-C18 diacid])QILLKQQKQKKERQKAETNVQLLERV-NH2; N-terminus assumed)	38.8 nM
CC[C@H](C)[C@H](NC(=O)[C@H](CCC(N)=O)NC(=O)[C@H](CCCCNC(=O)COCCOCCNC(=O)COCCOCCNC(=O)CC[C@H](NC(=O)CCCCCCCCCCCCCCCCCCC(=O)O)C(=O)O)NC(=O)[C@@H](NC(=O)[C@H](CCCCN)NC(=O)[C@@H](NC(=O)[C@@H]1CCCN1C(=O)[C@@H](NC(=O)[C@H](CC(=O)O)NC(=O)[C@H](CC(C)C)NC(=O)[C@H](CO)NC(=O)[C@H](CC(C)C)NC(=O)[C@@H](NC(=O)[C@@H](N)Cc1ccccc1)[C@@H](C)O)C(C)C)[C@@H](C)O)[C@@H](C)CC)C(=O)N[C@@H](CC(C)C)C(=O)N[C@@H](CC(C)C)C(=O)N[C@@H](CCCCN)C(=O)N[C@@H](CCC(N)=O)C(=O)N[C@@H](CCC(N)=O)C(=O)N[C@@H](CCCCN)C(=O)N[C@@H](CCC(N)=O)C(=O)N[C@@H](CCCCN)C(=O)N[C@@H](CCCCN)C(=O)N[C@@H](CCC(=O)O)C(=O)N[C@@H](CCCNC(=N)N)C(=O)N[C@@H](CCC(N)=O)C(=O)N[C@@H](CCCCN)C(=O)N[C@@H](C)C(=O)N[C@@H](CCC(=O)O)C(=O)N[C@H](C(=O)N[C@@H](CC(N)=O)C(=O)N[C@H](C(=O)N[C@@H](CCC(N)=O)C(=O)N[C@@H](CC(C)C)C(=O)N[C@@H](CC(C)C)C(=O)N[C@@H](CCC(=O)O)C(=O)N[C@@H](CCCNC(=N)N)C(=O)N[C@H](C(N)=O)C(C)C)C(C)C)[C@@H](C)O [compound 64] (H-FTLSLDVPTKIK([AEEA-AEEA-γGlu-C20 diacid])QILLKQQKQKKERQKAETNVQLLERV-NH2)	13.2 nM
CC[C@H](C)[C@H](NC(=O)[C@H](CCC(N)=O)NC(=O)[C@H](CCCCNC(=O)COCCOCCNC(=O)COCCOCCNC(=O)CC[C@H](NC(=O)CCCCCCCCCCCCCCCCCCC(=O)O)C(=O)O)NC(=O)[C@H](CC(C)C)NC(=O)CNC(=O)[C@@H](NC(=O)[C@@H]1CCCN1C(=O)[C@@H](NC(=O)[C@H](CC(=O)O)NC(=O)[C@H](CC(C)C)NC(=O)[C@H](CO)NC(=O)[C@H](CC(C)C)NC(=O)[C@@H](NC(=O)[C@@H](N)Cc1ccccc1)[C@@H](C)O)C(C)C)[C@@H](C)CC)C(=O)N[C@@H](CC(C)C)C(=O)N[C@@H](CC(C)C)C(=O)N[C@@H](CCCCN)C(=O)N[C@@H](CCC(N)=O)C(=O)N[C@@H](CCC(N)=O)C(=O)N[C@@H](CCCCN)C(=O)N[C@@H](CCC(N)=O)C(=O)N[C@@H](CCCCN)C(=O)N[C@@H](CCCCN)C(=O)N[C@@H](CCC(=O)O)C(=O)N[C@@H](CCCNC(=N)N)C(=O)N[C@@H](CCC(N)=O)C(=O)N[C@@H](CCC(N)=O)C(=O)N[C@@H](C)C(=O)N[C@@H](CCC(=O)O)C(=O)N[C@H](C(=O)N[C@@H](CC(N)=O)C(=O)N[C@H](C(=O)N[C@@H](CCC(N)=O)C(=O)N[C@@H](CC(C)C)C(=O)N[C@@H](CC(C)C)C(=O)N[C@@H](CCC(=O)O)C(=O)N[C@@H](CCCNC(=N)N)C(=O)N[C@H](C(N)=O)C(C)C)C(C)C)[C@@H](C)O [compound 65] (H-FTLSLDVPIGLK([AEEA-AEEA-γGlu-C20 diacid])QILLKQQKQKKERQQAETNVQLLERV-NH2)	9.31 nM
CC[C@H](C)[C@H](NC(=O)[C@H](CCC(N)=O)NC(=O)[C@H](CCCCNC(=O)COCCOCCNC(=O)COCCOCCNC(=O)CC[C@H](NC(=O)CCCCCCCCCCCCCCCCCCC(=O)O)C(=O)O)NC(=O)[C@H](CC(C)C)NC(=O)CNC(=O)[C@@H](NC(=O)[C@@H]1CCCN1C(=O)[C@@H](NC(=O)[C@H](CC(=O)O)NC(=O)[C@H](CC(C)C)NC(=O)[C@H](CO)NC(=O)[C@H](CC(C)C)NC(=O)[C@@H](NC(=O)[C@@H](N)Cc1ccccc1)[C@@H](C)O)C(C)C)[C@@H](C)CC)C(=O)N[C@@H](CC(C)C)C(=O)N[C@@H](CC(C)C)C(=O)N[C@@H](CCCCN)C(=O)N[C@@H](CCC(N)=O)C(=O)N[C@@H](CCC(N)=O)C(=O)N[C@@H](CCCCN)C(=O)N[C@@H](CCC(N)=O)C(=O)N[C@@H](CCCCN)C(=O)N[C@@H](CCCCN)C(=O)N[C@@H](CCC(=O)O)C(=O)N[C@@H](CCCNC(=N)N)C(=O)N[C@@H](CCC(N)=O)C(=O)N[C@@H](CCCCN)C(=O)N[C@@H](C)C(=O)N[C@@H](CCC(=O)O)C(=O)N[C@H](C(=O)N[C@@H](CC(N)=O)C(=O)N[C@H](C(=O)N[C@@H](CCC(N)=O)C(=O)N[C@@H](CC(C)C)C(=O)N[C@@H](CC(C)C)C(=O)N[C@@H](CCC(=O)O)C(=O)N[C@@H](CCCNC(=N)N)C(=O)N[C@H](C(N)=O)C(C)C)C(C)C)[C@@H](C)O [compound 66] (H-FTLSLDVPIGLK([AEEA-AEEA-γGlu-C20 diacid])QILLKQQKQKKERQKAETNVQLLERV-NH2; N-terminus assumed)	25.4 nM
CC[C@H](C)[C@H](N)C(=O)N[C@H](C(=O)N[C@@H](CC(C)C)C(=O)N[C@@H](CO)C(=O)N[C@@H](CC(C)C)C(=O)N[C@@H](CC(=O)O)C(=O)N[C@H](C(=O)N1CCC[C@H]1C(=O)N[C@H](C(=O)N[C@@H](CCCCN)C(=O)N[C@@H](CC(C)C)C(=O)N[C@@H](CCCCNC(=O)COCCOCCNC(=O)COCCOCCNC(=O)CC[C@H](NC(=O)CCCCCCCCCCCCCCCCC(=O)O)C(=O)O)C(=O)N[C@@H](CCCCN)C(=O)NC(C)(C)C(=O)N[C@@H](CC(C)C)C(=O)N[C@@H](CC(C)C)C(=O)N[C@@H](CCC(=O)O)C(=O)N[C@@H](CCC(N)=O)C(=O)N[C@@H](CCC(=O)O)C(=O)N[C@@H](CCCNC(=N)N)C(=O)N[C@@H](CCC(N)=O)C(=O)N[C@@H](CCCCN)C(=O)N[C@@H](CCCCN)C(=O)N[C@@H](CCC(N)=O)C(=O)N[C@@H](CCCNC(=N)N)C(=O)N[C@@H](CCC(=O)O)C(=O)N[C@@H](CCC(N)=O)C(=O)N[C@@H](C)C(=O)N[C@@H](CCC(=O)O)C(=O)N[C@H](C(=O)N[C@@H](CC(N)=O)C(=O)NC(C)(C)C(=O)N[C@@H](CCC(N)=O)C(=O)N[C@H](C(=O)N[C@@H](CC(C)C)C(=O)N[C@@H](C)C(=O)N[C@@H](CCC(N)=O)C(=O)N[C@H](C(N)=O)C(C)C)[C@@H](C)CC)[C@@H](C)O)[C@@H](C)CC)C(C)C)C(C)C [compound 71] (H-IVLSLDVPIKLK([AEEA-AEEA-γGlu-C18 diacid])K[Aib]LLEQERQKKQREQAETN[Aib]QILAQV-NH2; N-terminus assumed)	3.15 nM
CC[C@H](C)[C@H](N)C(=O)N[C@H](C(=O)N[C@@H](CC(C)C)C(=O)N[C@@H](CO)C(=O)N[C@@H](CC(C)C)C(=O)N[C@@H](CC(=O)O)C(=O)N[C@H](C(=O)N1CCC[C@H]1C(=O)N[C@H](C(=O)N[C@@H](CCCCN)C(=O)N[C@@H](CC(C)C)C(=O)N[C@@H](CCCCNC(=O)COCCOCCNC(=O)COCCOCCNC(=O)CC[C@H](NC(=O)CCCCCCCCCCCCCCCCC(=O)O)C(=O)O)C(=O)N[C@@H](CCC(N)=O)C(=O)N[C@H](C(=O)N[C@@H](CC(C)C)C(=O)N[C@@H](CC(C)C)C(=O)N[C@@H](CCC(=O)O)C(=O)N[C@@H](CCC(N)=O)C(=O)N[C@@H](CCC(=O)O)C(=O)N[C@@H](CCCNC(=N)N)C(=O)N[C@@H](CCC(N)=O)C(=O)N[C@@H](CCCCN)C(=O)N[C@@H](CCCCN)C(=O)N[C@@H](CCC(N)=O)C(=O)N[C@@H](CCCNC(=N)N)C(=O)N[C@@H](CCC(N)=O)C(=O)N[C@@H](CCCCN)C(=O)N[C@@H](C)C(=O)N[C@@H](CCC(=O)O)C(=O)N[C@H](C(=O)N[C@@H](CC(N)=O)C(=O)NC(C)(C)C(=O)N[C@@H](CCC(N)=O)C(=O)N[C@H](C(=O)N[C@@H](CC(C)C)C(=O)N[C@@H](C)C(=O)N[C@@H](CCC(N)=O)C(=O)N[C@H](C(N)=O)C(C)C)[C@@H](C)CC)[C@@H](C)O)[C@@H](C)CC)[C@@H](C)CC)C(C)C)C(C)C [compound 73] (H-IVLSLDVPIKLK([AEEA-AEEA-γGlu-C18 diacid])QILLEQERQKKQRQKAETN[Aib]QILAQV-NH2)	2.6 nM
